Assay results published in PubChem BioAssay AID1963829 (Molecular Pharmacology Branch, DTP, NCI, 2024).

System: 935938-334-R-J1-PDC complex spheroid viability
Test: Anticancer human tumor 935938-334-R-J1-PDC patient-derived small intestine adenocarcinoma cell line growth inhibition [POLQ]
Settings: for IC50: curve of first compound; for viability, T/C: stronger effect = lower value
In short: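 Patient-derived tumour cells were co-cultured with HUVEC and mesenchymal stem cells as multicellular spheroids at 37 °C. They were treated with POLQ inhibitors (novobiocin, ART-558, RP6685) alone or combined with other agents. Top concentrations were at or near clinical Cmax (otherwise 10 microM; SN-38 at 1 microM), decreasing in half-log steps.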

[1] = second compound 0.0316 µM, first compound 0.0316 µM
[2] = second compound 0.0316 µM, first compound 0.1 µM
[3] = second compound 0.0316 µM, first compound 0.316 µM
[4] = second compound 0.0316 µM, first compound 1 µM
[5] = second compound 0.0316 µM, first compound 3.16 µM
[6] = second compound 0.0316 µM, first compound 10 µM
[7] = second compound 0.1 µM, first compound 0.0316 µM
[8] = second compound 0.1 µM, first compound 0.1 µM
[9] = second compound 0.1 µM, first compound 0.316 µM
[10] = second compound 0.1 µM, first compound 1 µM
[11] = second compound 0.1 µM, first compound 3.16 µM
[12] = second compound 0.1 µM, first compound 10 µM
[13] = second compound 0.316 µM, first compound 0.0316 µM
[14] = second compound 0.316 µM, first compound 0.1 µM
[15] = second compound 0.316 µM, first compound 0.316 µM
[16] = second compound 0.316 µM, first compound 1 µM
[17] = second compound 0.316 µM, first compound 3.16 µM
[18] = second compound 0.316 µM, first compound 10 µM
[19] = second compound 1 µM, first compound 0.0316 µM
[20] = second compound 1 µM, first compound 0.1 µM
[21] = second compound 1 µM, first compound 0.316 µM
[22] = second compound 1 µM, first compound 1 µM
[23] = second compound 1 µM, first compound 3.16 µM
[24] = second compound 1 µM, first compound 10 µM
[25] = second compound 3.16 µM, first compound 0.0316 µM
[26] = second compound 3.16 µM, first compound 0.1 µM
[27] = second compound 3.16 µM, first compound 0.316 µM
[28] = second compound 3.16 µM, first compound 1 µM
[29] = second compound 3.16 µM, first compound 3.16 µM
[30] = second compound 3.16 µM, first compound 10 µM
[31] = second compound 10 µM, first compound 0.0316 µM
[32] = second compound 10 µM, first compound 0.1 µM
[33] = second compound 10 µM, first compound 0.316 µM
[34] = second compound 10 µM, first compound 1 µM
[35] = second compound 10 µM, first compound 3.16 µM
[36] = second compound 10 µM, first compound 10 µM
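Also: spheroids exposed to drugs for seven days before viability read.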
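For viability, T/C in this document: 100% = DMSO vehicle control wells.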

C=CC(=O)N1CCN(c2nc(=O)n(-c3c(C)ccnc3C(C)C)c3nc(-c4c(O)cccc4F)c(F)cc23)C(C)C1 (centres undefined) + Cc1cccc(N(C)C(=O)C2C(O)CCN2c2nc(C)cc(C(F)(F)F)c2C#N)c1
IC50 (second compound 0.0316 µM): > 10000 nM | IC50 (second compound 0.1 µM): > 10000 nM | IC50 (second compound 0.316 µM): > 10000 nM | IC50 (second compound 1 µM): > 10000 nM | IC50 (second compound 3.16 µM): > 10000 nM | IC50 (second compound 10 µM): > 10000 nM | viability, T/C [1]: 94.3% | viability, T/C [2]: 98.4% | viability, T/C [3]: 77% | viability, T/C [4]: 101% | viability, T/C [5]: 88.1% | viability, T/C [6]: 109% | viability, T/C [7]: 116% | viability, T/C [8]: 97.8% | viability, T/C [9]: 91.3% | viability, T/C [10]: 113% | viability, T/C [11]: 90.4% | viability, T/C [12]: 70.1% | viability, T/C [13]: 76.7% | viability, T/C [14]: 80.9% | viability, T/C [15]: 105% | viability, T/C [16]: 100% | viability, T/C [17]: 81.2% | viability, T/C [18]: 106% | viability, T/C [19]: 85.8% | viability, T/C [20]: 111% | viability, T/C [21]: 82.7% | viability, T/C [22]: 108% | viability, T/C [23]: 92.2% | viability, T/C [24]: 99.7% | viability, T/C [25]: 96% | viability, T/C [26]: 95% | viability, T/C [27]: 74.6% | viability, T/C [28]: 96.3% | viability, T/C [29]: 102% | viability, T/C [30]: 79.1% | viability, T/C [31]: 77.8% | viability, T/C [32]: 80.6% | viability, T/C [33]: 64.8% | viability, T/C [34]: 94.9% | viability, T/C [35]: 118% | viability, T/C [36]: 107%

CC1COCCN1c1cc(C2(S(C)(=N)=O)CC2)nc(-c2ccnc3[nH]ccc23)n1 (centres undefined) + Cc1cccc(N(C)C(=O)C2C(O)CCN2c2nc(C)cc(C(F)(F)F)c2C#N)c1
IC50 (second compound 0.0316 µM): 2890 nM | IC50 (second compound 0.1 µM): 3050 nM | IC50 (second compound 0.316 µM): 2440 nM | IC50 (second compound 1 µM): 2520 nM | IC50 (second compound 3.16 µM): 1570 nM | IC50 (second compound 10 µM): 2000 nM | viability, T/C [1]: 116% | viability, T/C [2]: 91.8% | viability, T/C [3]: 91.4% | viability, T/C [4]: 96.2% | viability, T/C [5]: 46.1% | viability, T/C [6]: 21.4% | viability, T/C [7]: 113% | viability, T/C [8]: 109% | viability, T/C [9]: 86.1% | viability, T/C [10]: 84.5% | viability, T/C [11]: 44.6% | viability, T/C [12]: 20.2% | viability, T/C [13]: 82.6% | viability, T/C [14]: 110% | viability, T/C [15]: 69.1% | viability, T/C [16]: 88.1% | viability, T/C [17]: 38.9% | viability, T/C [18]: 19.9% | viability, T/C [19]: 110% | viability, T/C [20]: 89% | viability, T/C [21]: 97.6% | viability, T/C [22]: 70.1% | viability, T/C [23]: 44.4% | viability, T/C [24]: 21.8% | viability, T/C [25]: 97.7% | viability, T/C [26]: 112% | viability, T/C [27]: 72.3% | viability, T/C [28]: 62.9% | viability, T/C [29]: 36.4% | viability, T/C [30]: 23.5% | viability, T/C [31]: 116% | viability, T/C [32]: 104% | viability, T/C [33]: 117% | viability, T/C [34]: 68% | viability, T/C [35]: 41.2% | viability, T/C [36]: 20.1%
